Experimental data as given in ChEMBL document CHEMBL3885881, “DrugMatrix”.

Species on record: Rattus norvegicus
Experiment: DrugMatrix - Regimen: Daily Repeat
Assay type: toxicity, organism-based, Sprague-Dawley
Set-up: regimen Daily Repeat, gender Male, age 6-8 weeks
Settings: in vivo, po, route oral GAVAGE, vehicle 100 % WATER; for ABSOLUTE BASOPHIL / ABSOLUTE EOSINOPHIL / ABSOLUTE LYMPHOCYTE / ABSOLUTE MONOCYTE / ABSOLUTE SEGMENTED NEUTROPHIL / BASOPHIL / EOSINOPHIL / ERYTHROCYTE COUNT / HEMATOCRIT / HEMOGLOBIN / LEUKOCYTE COUNT / LYMPHOCYTE / MEAN CORPUSCULAR HEMOGLOBIN / MEAN CORPUSCULAR HEMOGLOBIN CONCENTRATION / MEAN CORPUSCULAR VOLUME / MONOCYTE / NEUTROPHIL / NUCLEATED RED BLOOD CELLS / PLATELET COUNT: tissue Blood; for ALANINE AMINOTRANSFERASE / ALBUMIN / ALKALINE PHOSPHATASE / ASPARTATE AMINOTRANSFERASE / BLOOD UREA NITROGEN / CARBON DIOXIDE / CHLORIDE / CHOLESTEROL / CREATINE PHOSPHOKINASE / CREATININE / GLUCOSE / LACTATE DEHYDROGENASE / LIPASE / PHOSPHORUS / POTASSIUM / SODIUM / TOTAL BILIRUBIN / TOTAL PROTEIN / URIC ACID: tissue Plasma
[1] = 0 mg/kg, 72 h, dose level Control, time 3 day
[2] = 0 mg/kg, 120 h, dose level Control, time 5 day
[3] = 0.3 mg/kg, 72 h, dose level Low, time 3 day

Clc1cccc(Cl)c1N=C1NCCN1 [CLONIDINE]
ABSOLUTE BASOPHIL [1]: 0 CELLS/uL | ABSOLUTE EOSINOPHIL [1]: 24 CELLS/uL | ABSOLUTE LYMPHOCYTE [1]: 13105 CELLS/uL | ABSOLUTE MONOCYTE [1]: 76 CELLS/uL | ABSOLUTE SEGMENTED NEUTROPHIL [1]: 2145 CELLS/uL | BASOPHIL [1]: 0% | EOSINOPHIL [1]: 0.17% | ERYTHROCYTE COUNT [1]: 5.81 x10E6/uL | HEMATOCRIT [1]: 35.6% | HEMOGLOBIN [1]: 13.72 G/DL | LEUKOCYTE COUNT [1]: 15.35 x10E3/uL | LYMPHOCYTE [1]: 85.5% | MEAN CORPUSCULAR HEMOGLOBIN [1]: 23.62 pg | MEAN CORPUSCULAR HEMOGLOBIN CONCENTRATION [1]: 38.55 G/DL | MEAN CORPUSCULAR VOLUME [1]: 61.23 fL | MONOCYTE [1]: 0.5% | NEUTROPHIL [1]: 13.83% | NUCLEATED RED BLOOD CELLS [1]: 0 /100WBC | PLATELET COUNT [1]: 1189.83 x10E3/uL | ALANINE AMINOTRANSFERASE [1]: 48.67 u/L | ALBUMIN [1]: 4.27 G/DL | ALKALINE PHOSPHATASE [1]: 335 u/L | ASPARTATE AMINOTRANSFERASE [1]: 86.5 u/L | BLOOD UREA NITROGEN [1]: 14.33 mg/dL | CARBON DIOXIDE [1]: 29.17 mmol/L | CHLORIDE [1]: 99.83 MEQ/L | CHOLESTEROL [1]: 71.83 mg/dL | CREATINE PHOSPHOKINASE [1]: 506.83 u/L | CREATININE [1]: 0.18 mg/dL | GLUCOSE [1]: 162.17 mg/dL | LACTATE DEHYDROGENASE [1]: 264.5 u/L | LIPASE [1]: 9.67 u/L | PHOSPHORUS [1]: 11.92 mg/dL | POTASSIUM [1]: 6.55 MEQ/L | SODIUM [1]: 141.53 MEQ/L | TOTAL BILIRUBIN [1]: 0.18 mg/dL | TOTAL PROTEIN [1]: 5.87 G/DL | URIC ACID [1]: 1.67 mg/dL | ABSOLUTE BASOPHIL [2]: 0 CELLS/uL | ABSOLUTE EOSINOPHIL [2]: 25.33 CELLS/uL | ABSOLUTE LYMPHOCYTE [2]: 15680 CELLS/uL | ABSOLUTE MONOCYTE [2]: 92.33 CELLS/uL | ABSOLUTE SEGMENTED NEUTROPHIL [2]: 2102.33 CELLS/uL | BASOPHIL [2]: 0% | EOSINOPHIL [2]: 0.17% | ERYTHROCYTE COUNT [2]: 6 x10E6/uL | HEMATOCRIT [2]: 35.55% | HEMOGLOBIN [2]: 14.12 G/DL | LEUKOCYTE COUNT [2]: 17.9 x10E3/uL | LYMPHOCYTE [2]: 87.33% | MEAN CORPUSCULAR HEMOGLOBIN [2]: 23.65 pg | MEAN CORPUSCULAR HEMOGLOBIN CONCENTRATION [2]: 39.77 G/DL | MEAN CORPUSCULAR VOLUME [2]: 59.52 fL | MONOCYTE [2]: 0.5% | NEUTROPHIL [2]: 12% | NUCLEATED RED BLOOD CELLS [2]: 0.17 /100WBC | PLATELET COUNT [2]: 1325.67 x10E3/uL | ALANINE AMINOTRANSFERASE [2]: 56.17 u/L | ALBUMIN [2]: 4.23 G/DL | ALKALINE PHOSPHATASE [2]: 371.5 u/L | ASPARTATE AMINOTRANSFERASE [2]: 91 u/L | BLOOD UREA NITROGEN [2]: 15.33 mg/dL | CARBON DIOXIDE [2]: 27.67 mmol/L | CHLORIDE [2]: 99.5 MEQ/L | CHOLESTEROL [2]: 66.5 mg/dL | CREATINE PHOSPHOKINASE [2]: 518.5 u/L | CREATININE [2]: 0.18 mg/dL | GLUCOSE [2]: 143.33 mg/dL | LACTATE DEHYDROGENASE [2]: 238.83 u/L | LIPASE [2]: 9.33 u/L | PHOSPHORUS [2]: 10.68 mg/dL | POTASSIUM [2]: 6.5 MEQ/L | SODIUM [2]: 141.88 MEQ/L | TOTAL BILIRUBIN [2]: 0.18 mg/dL | TOTAL PROTEIN [2]: 6 G/DL | URIC ACID [2]: 1.63 mg/dL | ABSOLUTE BASOPHIL [3]: 0 CELLS/uL | ABSOLUTE EOSINOPHIL [3]: 0 CELLS/uL | ABSOLUTE LYMPHOCYTE [3]: 15419.33 CELLS/uL | ABSOLUTE MONOCYTE [3]: 122.67 CELLS/uL | ABSOLUTE SEGMENTED NEUTROPHIL [3]: 2191.33 CELLS/uL | BASOPHIL [3]: 0% | EOSINOPHIL [3]: 0% | ERYTHROCYTE COUNT [3]: 5.84 x10E6/uL | HEMATOCRIT [3]: 35.27% | HEMOGLOBIN [3]: 13.6 G/DL | LEUKOCYTE COUNT [3]: 17.73 x10E3/uL | LYMPHOCYTE [3]: 87% | MEAN CORPUSCULAR HEMOGLOBIN [3]: 23.23 pg | MEAN CORPUSCULAR HEMOGLOBIN CONCENTRATION [3]: 38.57 G/DL | MEAN CORPUSCULAR VOLUME [3]: 60.37 fL | MONOCYTE [3]: 0.67% | NEUTROPHIL [3]: 12.33% | NUCLEATED RED BLOOD CELLS [3]: 0 /100WBC | PLATELET COUNT [3]: 1290.67 x10E3/uL | ALANINE AMINOTRANSFERASE [3]: 45.33 u/L | ALBUMIN [3]: 3.9 G/DL | ALKALINE PHOSPHATASE [3]: 319 u/L | ASPARTATE AMINOTRANSFERASE [3]: 93.67 u/L | BLOOD UREA NITROGEN [3]: 18.33 mg/dL | CARBON DIOXIDE [3]: 27.33 mmol/L | CHLORIDE [3]: 101.67 MEQ/L | CHOLESTEROL [3]: 75 mg/dL | CREATINE PHOSPHOKINASE [3]: 321.67 u/L | CREATININE [3]: 0.19 mg/dL | GLUCOSE [3]: 140.33 mg/dL | LACTATE DEHYDROGENASE [3]: 166 u/L | LIPASE [3]: 9.67 u/L | PHOSPHORUS [3]: 10.43 mg/dL | POTASSIUM [3]: 6.56 MEQ/L | SODIUM [3]: 141.9 MEQ/L | TOTAL BILIRUBIN [3]: 0.17 mg/dL | TOTAL PROTEIN [3]: 5.63 G/DL | URIC ACID [3]: 1.87 mg/dL
